Test results taken from ChEMBL document CHEMBL4024706 (Eur J Med Chem, 2017).

Key:
[1] = molecular target: Serine/threonine-protein kinase PAK 1 (Homo sapiens) (UniProt Q13153); assay: Inhibition of wild-type human partial length PAK1 (S149 to H545 residues) expressed in bacterial expression system assessed as residual activity at 1 uM by Kinomescan method relative to control
[2] = molecular target: Receptor tyrosine-protein kinase erbB-3 (Homo sapiens) (UniProt P21860); assay: Inhibition of wild-type human partial length ERBB3 (G684 to A987 residues) expressed in mammalian expression system assessed as residual activity at 1 uM by Kinomescan method relative to control
[3] = molecular target: Bone morphogenetic protein receptor type-2 (Homo sapiens) (UniProt Q13873); assay: Inhibition of wild-type human partial length BMPR2 (R179 to Q526 residues) expressed in mammalian expression system assessed as residual activity at 1 uM by Kinomescan method relative to control
[4] = molecular target: Serine/threonine-protein kinase 10 (Homo sapiens) (UniProt O94804); assay: Inhibition of wild-type human partial length LOK (E16 to V314 residues) expressed in bacterial expression system assessed as residual activity at 1 uM by Kinomescan method relative to control
[5] = molecular target: Citron Rho-interacting kinase (Homo sapiens) (UniProt O14578); assay: Inhibition of wild-type human partial length CIT (M68 to E432 residues) expressed in bacterial expression system assessed as residual activity at 1 uM by Kinomescan method relative to control
[6] = molecular target: Dual specificity protein kinase CLK2 (Homo sapiens) (UniProt P49760); assay: Inhibition of wild-type human partial length CLK2 (D144 to R498 residues) expressed in bacterial expression system assessed as residual activity at 1 uM by Kinomescan method relative to control
[7] = molecular target: Mitogen-activated protein kinase kinase kinase 15 (Homo sapiens) (UniProt Q6ZN16); assay: Inhibition of wild-type human partial length MAP3K15 (T625 to L932 residues) expressed in mammalian expression system assessed as residual activity at 1 uM by Kinomescan method relative to control
[8] = molecular target: 5'-AMP-activated protein kinase catalytic subunit alpha-1 (Homo sapiens) (UniProt Q13131); assay: Inhibition of wild-type human partial length AMPK alpha1 (M1 to E306 residues) expressed in bacterial expression system assessed as residual activity at 1 uM by Kinomescan method relative to control
[9] = molecular target: Cyclin-dependent kinase 16 (Homo sapiens) (UniProt Q00536); assay: Inhibition of wild-type human partial length PCTK1 (G160 to A474 residues) expressed in mammalian expression system assessed as residual activity at 1 uM by Kinomescan method relative to control
[10] = molecular target: Ephrin type-B receptor 2 (Homo sapiens) (UniProt P29323); assay: Inhibition of wild-type human partial length EPHB2 (I597 to L902 residues) expressed in bacterial expression system assessed as residual activity at 1 uM by Kinomescan method relative to control
[11] = molecular target: Ribosomal protein S6 kinase alpha-4 (Homo sapiens) (UniProt O75676); assay: Inhibition of wild-type human partial length N-terminal RPS6KA4 kinase domain 1 expressed in bacterial expression system assessed as residual activity at 1 uM by Kinomescan method relative to control
[12] = test system: Serine/threonine-protein kinase B-raf (Homo sapiens), P15056 [V600E]; assay: Inhibition of human partial length BRAF V600E mutant (S429 to E741 residues) expressed in mammalian expression system assessed as residual activity at 1 uM by Kinomescan method relative to control
[13] = molecular target: Serine/threonine-protein kinase ICK (Homo sapiens) (UniProt Q9UPZ9); assay: Inhibition of wild-type human partial length ICK (M1 to P314 residues) expressed in mammalian expression system assessed as residual activity at 1 uM by Kinomescan method relative to control
[14] = molecular target: Serine/threonine-protein kinase Nek4 (Homo sapiens) (UniProt P51957); assay: Inhibition of wild-type human full length NEK4 (M1 to F841 residues) expressed in mammalian expression system assessed as residual activity at 1 uM by Kinomescan method relative to control
[15] = molecular target: Serine/threonine-protein kinase BRSK1 (Homo sapiens) (UniProt Q8TDC3); assay: Inhibition of wild-type human partial length BRSK1 (M1 to E754 residues) expressed in bacterial expression system assessed as residual activity at 1 uM by Kinomescan method relative to control
[16] = molecular target: Membrane-associated tyrosine- and threonine-specific cdc2-inhibitory kinase (Homo sapiens) (UniProt Q99640); assay: Inhibition of wild-type human partial length PKMYT1 (A88 to G366 residues) expressed in bacterial expression system assessed as residual activity at 1 uM by Kinomescan method relative to control
[17] = molecular target: ALK tyrosine kinase receptor (Homo sapiens) (UniProt Q9UM73); assay: Inhibition of wild-type human partial length ALK (I1088 to E1409 residues) expressed in mammalian expression system assessed as residual activity at 1 uM by Kinomescan method relative to control
[18] = test system: Phosphatidylinositol 4,5-bisphosphate 3-kinase catalytic subunit alpha isoform (Homo sapiens), P42336 [I800L]; assay: Inhibition of human partial length PIK3CA I800L mutant (R108 to N1068 residues) expressed in mammalian expression system assessed as residual activity at 1 uM by Kinomescan method relative to control
[19] = molecular target: AP2-associated protein kinase 1 (Homo sapiens) (UniProt Q2M2I8); assay: Inhibition of human wild-type AAK1 (G25 to L333 residues) expressed in bacterial expression system assessed as residual activity at 1 uM by Kinomescan method relative to control
[20] = molecular target: Cyclin-dependent kinase-like 5 (Homo sapiens) (UniProt O76039); assay: Inhibition of wild-type human partial length CDKL5 (M1 to S337 residues) expressed in mammalian expression system assessed as residual activity at 1 uM by Kinomescan method relative to control
[21] = molecular target: LIM domain kinase 2 (Homo sapiens) (UniProt P53671); assay: Inhibition of wild-type human full length LIMK2 (M1 to P638 residues) expressed in bacterial expression system assessed as residual activity at 1 uM by Kinomescan method relative to control
[22] = molecular target: Dual specificity protein kinase CLK4 (Homo sapiens) (UniProt Q9HAZ1); assay: Inhibition of wild-type human partial length CLK4 (R135 to K481 residues) expressed in bacterial expression system assessed as residual activity at 1 uM by Kinomescan method relative to control
[23] = molecular target: Serine/threonine-protein kinase Nek6 (Homo sapiens) (UniProt Q9HC98); assay: Inhibition of wild-type human full length NEK6 (M8 to T313 residues) expressed in bacterial expression system assessed as residual activity at 1 uM by Kinomescan method relative to control
[24] = molecular target: Ribosomal protein S6 kinase alpha-2 (Homo sapiens) (UniProt Q15349); assay: Inhibition of wild-type human partial length C-terminal RSK3 kinase domain 2 (V403 to K700 residues) expressed in bacterial expression system assessed as residual activity at 1 uM by Kinomescan method relative to control
[25] = molecular target: Tyrosine-protein kinase CSK (Homo sapiens) (UniProt P41240); assay: Inhibition of wild-type human full length CSK (M1 to L450 residues) expressed in bacterial expression system assessed as residual activity at 1 uM by Kinomescan method relative to control

Mitogen-activated protein kinase kinase kinase 15 (Homo sapiens), sequence (Q6ZN16 whole entry, the tested form may be a part): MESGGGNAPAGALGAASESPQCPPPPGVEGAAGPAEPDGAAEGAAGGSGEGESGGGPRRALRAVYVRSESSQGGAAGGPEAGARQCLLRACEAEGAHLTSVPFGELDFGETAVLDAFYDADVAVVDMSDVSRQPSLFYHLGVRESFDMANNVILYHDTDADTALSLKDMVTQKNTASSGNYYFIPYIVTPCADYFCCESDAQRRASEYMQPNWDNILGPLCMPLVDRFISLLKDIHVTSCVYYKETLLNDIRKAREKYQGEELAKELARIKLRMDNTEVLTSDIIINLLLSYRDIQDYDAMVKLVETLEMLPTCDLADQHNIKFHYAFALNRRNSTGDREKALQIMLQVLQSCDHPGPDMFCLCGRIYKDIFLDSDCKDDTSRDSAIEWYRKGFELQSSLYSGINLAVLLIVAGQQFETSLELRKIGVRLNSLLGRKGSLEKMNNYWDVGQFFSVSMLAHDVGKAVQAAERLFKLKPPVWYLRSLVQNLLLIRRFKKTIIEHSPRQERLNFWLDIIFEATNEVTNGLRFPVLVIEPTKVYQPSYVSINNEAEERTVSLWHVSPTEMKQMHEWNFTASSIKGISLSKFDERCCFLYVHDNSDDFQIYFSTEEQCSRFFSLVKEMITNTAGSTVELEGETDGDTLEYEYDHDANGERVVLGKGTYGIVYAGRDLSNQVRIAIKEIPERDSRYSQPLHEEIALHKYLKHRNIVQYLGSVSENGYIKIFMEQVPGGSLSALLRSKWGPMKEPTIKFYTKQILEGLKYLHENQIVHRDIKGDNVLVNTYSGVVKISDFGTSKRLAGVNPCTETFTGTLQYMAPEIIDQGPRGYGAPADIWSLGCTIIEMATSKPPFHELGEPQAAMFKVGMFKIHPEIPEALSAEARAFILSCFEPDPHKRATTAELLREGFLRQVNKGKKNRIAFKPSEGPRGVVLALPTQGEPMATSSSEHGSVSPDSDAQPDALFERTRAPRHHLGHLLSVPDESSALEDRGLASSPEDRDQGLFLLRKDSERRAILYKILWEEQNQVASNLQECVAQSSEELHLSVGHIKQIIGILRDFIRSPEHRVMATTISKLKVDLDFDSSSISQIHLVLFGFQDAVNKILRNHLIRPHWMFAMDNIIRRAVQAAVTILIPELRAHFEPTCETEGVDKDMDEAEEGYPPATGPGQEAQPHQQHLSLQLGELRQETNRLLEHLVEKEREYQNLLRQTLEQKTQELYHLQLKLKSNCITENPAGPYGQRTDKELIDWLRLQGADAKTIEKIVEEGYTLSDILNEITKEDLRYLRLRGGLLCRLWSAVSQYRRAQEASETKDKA
Cyclin-dependent kinase-like 5 (Homo sapiens), sequence (O76039 whole entry, the tested form may be a part): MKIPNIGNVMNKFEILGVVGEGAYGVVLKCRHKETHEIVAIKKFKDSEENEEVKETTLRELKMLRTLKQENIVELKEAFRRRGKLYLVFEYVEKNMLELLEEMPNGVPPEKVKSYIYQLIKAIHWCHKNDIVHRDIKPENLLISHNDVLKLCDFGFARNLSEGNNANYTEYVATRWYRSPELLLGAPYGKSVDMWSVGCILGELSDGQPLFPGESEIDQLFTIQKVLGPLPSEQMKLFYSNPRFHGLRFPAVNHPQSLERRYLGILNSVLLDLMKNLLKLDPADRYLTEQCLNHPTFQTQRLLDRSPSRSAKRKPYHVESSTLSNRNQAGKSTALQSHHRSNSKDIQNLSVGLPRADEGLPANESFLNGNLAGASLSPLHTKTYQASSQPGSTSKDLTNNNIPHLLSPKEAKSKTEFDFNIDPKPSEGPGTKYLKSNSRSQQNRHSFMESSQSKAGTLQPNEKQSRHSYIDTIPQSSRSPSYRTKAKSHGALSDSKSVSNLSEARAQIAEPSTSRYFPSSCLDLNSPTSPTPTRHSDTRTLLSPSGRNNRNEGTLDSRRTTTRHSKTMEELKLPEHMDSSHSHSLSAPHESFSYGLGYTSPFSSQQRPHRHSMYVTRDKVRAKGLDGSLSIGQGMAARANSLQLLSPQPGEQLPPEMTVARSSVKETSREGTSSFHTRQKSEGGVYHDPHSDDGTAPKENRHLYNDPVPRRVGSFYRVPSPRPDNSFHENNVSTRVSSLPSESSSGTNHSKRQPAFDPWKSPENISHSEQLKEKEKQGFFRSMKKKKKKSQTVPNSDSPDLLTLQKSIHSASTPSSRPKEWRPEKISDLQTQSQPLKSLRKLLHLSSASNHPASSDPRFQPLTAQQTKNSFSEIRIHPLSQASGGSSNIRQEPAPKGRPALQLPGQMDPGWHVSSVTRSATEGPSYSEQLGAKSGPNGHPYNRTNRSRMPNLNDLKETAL
Receptor tyrosine-protein kinase erbB-3 (Homo sapiens), sequence (P21860 whole entry, the tested form may be a part): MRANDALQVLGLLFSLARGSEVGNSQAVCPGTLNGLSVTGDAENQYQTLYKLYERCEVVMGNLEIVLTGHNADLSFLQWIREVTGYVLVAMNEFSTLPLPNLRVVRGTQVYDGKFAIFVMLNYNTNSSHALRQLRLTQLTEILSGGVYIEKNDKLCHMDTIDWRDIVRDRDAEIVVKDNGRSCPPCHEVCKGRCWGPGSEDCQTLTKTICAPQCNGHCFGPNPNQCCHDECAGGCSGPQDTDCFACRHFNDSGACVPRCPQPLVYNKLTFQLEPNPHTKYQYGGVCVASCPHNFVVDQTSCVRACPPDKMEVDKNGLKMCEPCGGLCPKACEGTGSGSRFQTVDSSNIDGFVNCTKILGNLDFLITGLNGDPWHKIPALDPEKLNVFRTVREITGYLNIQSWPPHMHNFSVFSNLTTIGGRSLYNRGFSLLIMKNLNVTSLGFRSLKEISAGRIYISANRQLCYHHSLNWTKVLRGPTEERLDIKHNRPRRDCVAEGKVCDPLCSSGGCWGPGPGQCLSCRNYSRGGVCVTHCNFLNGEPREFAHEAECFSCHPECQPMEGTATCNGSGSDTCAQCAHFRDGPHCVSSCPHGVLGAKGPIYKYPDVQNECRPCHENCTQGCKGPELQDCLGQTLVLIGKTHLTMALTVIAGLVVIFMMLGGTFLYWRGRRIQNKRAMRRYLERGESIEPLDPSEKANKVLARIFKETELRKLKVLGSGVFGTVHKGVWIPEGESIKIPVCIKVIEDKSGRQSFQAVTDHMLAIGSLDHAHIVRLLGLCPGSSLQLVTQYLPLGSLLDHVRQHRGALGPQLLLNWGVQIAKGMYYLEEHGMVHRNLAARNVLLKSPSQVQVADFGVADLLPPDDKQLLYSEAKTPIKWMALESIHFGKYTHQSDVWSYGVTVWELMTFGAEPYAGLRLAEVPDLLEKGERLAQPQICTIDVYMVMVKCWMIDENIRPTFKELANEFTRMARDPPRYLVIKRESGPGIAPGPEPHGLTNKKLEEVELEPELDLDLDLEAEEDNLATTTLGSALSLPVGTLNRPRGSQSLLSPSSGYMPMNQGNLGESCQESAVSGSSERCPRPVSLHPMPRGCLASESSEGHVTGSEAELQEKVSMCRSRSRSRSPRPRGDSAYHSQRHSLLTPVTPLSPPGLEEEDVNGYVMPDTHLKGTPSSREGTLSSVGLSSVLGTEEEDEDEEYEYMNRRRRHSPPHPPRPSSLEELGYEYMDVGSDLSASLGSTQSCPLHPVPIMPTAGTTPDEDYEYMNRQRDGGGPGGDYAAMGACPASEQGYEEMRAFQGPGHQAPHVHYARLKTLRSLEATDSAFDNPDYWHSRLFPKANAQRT
Serine/threonine-protein kinase B-raf (Homo sapiens), P15056 [V600E], sequence (P15056 whole entry V600E, the tested form may be a part): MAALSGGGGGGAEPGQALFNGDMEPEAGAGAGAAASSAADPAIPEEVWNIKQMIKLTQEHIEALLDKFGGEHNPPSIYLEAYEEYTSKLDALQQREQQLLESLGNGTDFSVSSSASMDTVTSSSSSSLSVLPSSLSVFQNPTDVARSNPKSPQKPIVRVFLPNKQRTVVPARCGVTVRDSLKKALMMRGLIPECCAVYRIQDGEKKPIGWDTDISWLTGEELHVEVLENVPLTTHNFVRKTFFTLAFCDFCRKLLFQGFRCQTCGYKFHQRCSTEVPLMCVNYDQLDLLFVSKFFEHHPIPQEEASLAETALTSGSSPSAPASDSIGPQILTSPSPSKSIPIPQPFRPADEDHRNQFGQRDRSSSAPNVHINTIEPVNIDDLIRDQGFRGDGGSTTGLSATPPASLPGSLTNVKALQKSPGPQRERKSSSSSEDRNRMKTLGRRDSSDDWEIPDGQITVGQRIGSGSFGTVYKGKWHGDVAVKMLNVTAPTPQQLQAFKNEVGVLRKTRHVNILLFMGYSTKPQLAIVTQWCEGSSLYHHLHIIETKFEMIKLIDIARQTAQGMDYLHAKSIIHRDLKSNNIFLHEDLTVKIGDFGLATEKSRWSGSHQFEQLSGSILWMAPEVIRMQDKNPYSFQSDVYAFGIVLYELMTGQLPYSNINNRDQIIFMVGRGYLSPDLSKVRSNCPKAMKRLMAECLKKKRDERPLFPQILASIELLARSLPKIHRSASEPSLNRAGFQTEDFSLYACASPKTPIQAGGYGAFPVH
5'-AMP-activated protein kinase catalytic subunit alpha-1 (Homo sapiens), sequence (Q13131 whole entry, looked up, the tested form may be a part): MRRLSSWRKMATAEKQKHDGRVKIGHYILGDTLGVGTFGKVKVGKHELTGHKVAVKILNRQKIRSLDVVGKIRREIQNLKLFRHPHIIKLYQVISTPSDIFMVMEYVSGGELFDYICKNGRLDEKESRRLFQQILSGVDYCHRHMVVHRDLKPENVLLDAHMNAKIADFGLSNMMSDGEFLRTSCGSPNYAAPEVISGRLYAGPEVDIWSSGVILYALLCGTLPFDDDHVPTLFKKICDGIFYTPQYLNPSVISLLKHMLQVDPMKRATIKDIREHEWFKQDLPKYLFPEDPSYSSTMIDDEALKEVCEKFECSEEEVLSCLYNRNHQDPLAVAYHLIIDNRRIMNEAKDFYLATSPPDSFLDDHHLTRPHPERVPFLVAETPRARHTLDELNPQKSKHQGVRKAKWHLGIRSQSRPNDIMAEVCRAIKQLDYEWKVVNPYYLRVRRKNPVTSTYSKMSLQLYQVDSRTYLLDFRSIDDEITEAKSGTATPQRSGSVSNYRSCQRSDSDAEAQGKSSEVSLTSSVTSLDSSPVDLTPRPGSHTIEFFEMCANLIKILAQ

C=CC(=O)Nc1cc(Nc2cc(-c3cccc(NC(=O)c4ccc(C(C)(C)C)cc4)c3C)cn(C)c2=O)ccc1C(=O)N1CCOCC1
Activity [1]: 90% | Activity [2]: 88% | Activity [3]: 93% | Activity [4]: 94% | Activity [5]: 97% | Activity [6]: 100% | Activity [7]: 99% | Activity [8]: 89% | Activity [9]: 99% | Activity [10]: 100% | Activity [11]: 97% | Activity [12]: 100% | Activity [13]: 100% | Activity [14]: 100% | Activity [15]: 100% | Activity [16]: 91% | Activity [17]: 94% | Activity [18]: 100% | Activity [19]: 96% | Activity [20]: 100% | Activity [21]: 100% | Activity [22]: 90% | Activity [23]: 98% | Activity [24]: 83% | Activity [25]: 100%
